Experiments:
CAMK1G = target: T1, CAMK1G (Homo sapiens, UniProt Q96NX5); assay: KINOMEscan 1 μM, CAMK1G; assay type: binding; conditions: 1000 nM; Entrez CAMK1G; read-out: Percent Control
T1 construct: purchased Eurofins DiscoverX KINOMEscan
From the text: (§1) Supplement cells-12-00287-s001.zip/File S2. KinomeScan data for the CAMKK2 probe and negative control.xlsx, sheet "SGC-CAMKK2-1" | column: Percent Control

PIK3CA(H1047L) = target: T2, PIK3CA(H1047L) (Homo sapiens, UniProt P42336, H1047L); assay: KINOMEscan 1 μM, PIK3CA(H1047L); assay type: binding; conditions: 1000 nM; Entrez PIK3CA; read-out: Percent Control
T2 construct: purchased Eurofins DiscoverX KINOMEscan
T2 sequence (P42336 whole entry H1047L): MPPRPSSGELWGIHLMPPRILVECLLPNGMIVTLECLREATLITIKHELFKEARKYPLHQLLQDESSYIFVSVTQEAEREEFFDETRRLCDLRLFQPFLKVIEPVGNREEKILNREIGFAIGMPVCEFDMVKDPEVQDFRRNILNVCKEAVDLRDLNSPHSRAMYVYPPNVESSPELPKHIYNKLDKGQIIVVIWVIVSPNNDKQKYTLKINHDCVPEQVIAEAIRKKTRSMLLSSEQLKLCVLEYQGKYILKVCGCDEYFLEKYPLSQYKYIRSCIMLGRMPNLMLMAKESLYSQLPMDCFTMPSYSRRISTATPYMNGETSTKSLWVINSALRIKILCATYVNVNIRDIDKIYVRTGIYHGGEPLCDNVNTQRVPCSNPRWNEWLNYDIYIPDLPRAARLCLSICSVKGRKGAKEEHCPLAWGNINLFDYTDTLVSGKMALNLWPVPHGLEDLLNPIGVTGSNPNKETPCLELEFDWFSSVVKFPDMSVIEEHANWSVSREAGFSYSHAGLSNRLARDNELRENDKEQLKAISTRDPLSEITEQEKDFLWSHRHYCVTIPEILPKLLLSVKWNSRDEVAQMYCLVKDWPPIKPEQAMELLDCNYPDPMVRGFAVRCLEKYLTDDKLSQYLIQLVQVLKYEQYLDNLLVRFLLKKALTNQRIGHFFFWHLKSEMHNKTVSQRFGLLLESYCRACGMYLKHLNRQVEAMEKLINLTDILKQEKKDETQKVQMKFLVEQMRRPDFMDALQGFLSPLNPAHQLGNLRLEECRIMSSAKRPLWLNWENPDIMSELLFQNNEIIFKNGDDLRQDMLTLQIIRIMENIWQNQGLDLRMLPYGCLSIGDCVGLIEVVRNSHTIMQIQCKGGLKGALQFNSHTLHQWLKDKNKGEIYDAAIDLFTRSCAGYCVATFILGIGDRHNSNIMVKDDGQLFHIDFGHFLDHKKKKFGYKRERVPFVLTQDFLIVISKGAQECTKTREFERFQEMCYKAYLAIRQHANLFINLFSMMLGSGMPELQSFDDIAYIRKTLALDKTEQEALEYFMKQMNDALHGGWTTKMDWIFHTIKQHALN
From the text: as §1

PHKG1 = target: T3, PHKG1 (Homo sapiens, UniProt Q16816); assay: KINOMEscan 1 μM, PHKG1; assay type: binding; conditions: 1000 nM; Entrez PHKG1; read-out: Percent Control
T3 construct: purchased Eurofins DiscoverX KINOMEscan
From the text: as §1

SGK = target: T4, SGK (Homo sapiens, UniProt O00141); assay: KINOMEscan 1 μM, SGK; assay type: binding; conditions: 1000 nM; Entrez SGK1; read-out: Percent Control
T4 construct: purchased Eurofins DiscoverX KINOMEscan
T4 sequence (O00141 whole entry): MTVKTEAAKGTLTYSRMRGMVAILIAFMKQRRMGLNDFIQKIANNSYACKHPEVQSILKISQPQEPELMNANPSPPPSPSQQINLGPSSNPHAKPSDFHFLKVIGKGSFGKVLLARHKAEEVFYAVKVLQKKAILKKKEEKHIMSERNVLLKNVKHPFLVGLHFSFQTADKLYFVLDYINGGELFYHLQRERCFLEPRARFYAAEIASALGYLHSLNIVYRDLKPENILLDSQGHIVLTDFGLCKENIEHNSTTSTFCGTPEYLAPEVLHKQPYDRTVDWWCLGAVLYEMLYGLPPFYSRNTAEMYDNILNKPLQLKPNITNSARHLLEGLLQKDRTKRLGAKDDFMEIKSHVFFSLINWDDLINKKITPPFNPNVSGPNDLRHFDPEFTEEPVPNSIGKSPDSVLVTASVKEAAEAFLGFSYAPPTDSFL
From the text: as §1

EGFR(S752-I759del) = target: T5, EGFR(S752-I759del) (Homo sapiens, UniProt P00533, DEL752-759); assay: KINOMEscan 1 μM, EGFR(S752-I759del); assay type: binding; conditions: 1000 nM; Entrez EGFR; read-out: Percent Control
T5 construct: purchased Eurofins DiscoverX KINOMEscan
From the text: as §1

PIK3C2B = target: T6, PIK3C2B (Homo sapiens, UniProt O00750); assay: KINOMEscan 1 μM, PIK3C2B; assay type: binding; conditions: 1000 nM; Entrez PIK3C2B; read-out: Percent Control
T6 construct: purchased Eurofins DiscoverX KINOMEscan
From the text: as §1

STK36 = target: T7, STK36 (Homo sapiens, UniProt Q9NRP7); assay: KINOMEscan 1 μM, STK36; assay type: binding; conditions: 1000 nM; Entrez STK36; read-out: Percent Control
T7 construct: purchased Eurofins DiscoverX KINOMEscan
From the text: as §1

EPHB3 = target: T8, EPHB3 (Homo sapiens, UniProt P54753); assay: KINOMEscan 1 μM, EPHB3; assay type: binding; conditions: 1000 nM; Entrez EPHB3; read-out: Percent Control
T8 construct: purchased Eurofins DiscoverX KINOMEscan
From the text: as §1

BUB1 = target: T9, BUB1 (Homo sapiens, UniProt O43683); assay: KINOMEscan 1 μM, BUB1; assay type: binding; conditions: 1000 nM; Entrez BUB1; read-out: Percent Control
T9 construct: purchased Eurofins DiscoverX KINOMEscan
From the text: as §1

CSNK1G1 = target: T10, CSNK1G1 (Homo sapiens, UniProt Q9HCP0); assay: KINOMEscan 1 μM, CSNK1G1; assay type: binding; conditions: 1000 nM; Entrez CSNK1G1; read-out: Percent Control
T10 construct: purchased Eurofins DiscoverX KINOMEscan
From the text: as §1

EPHA5 = target: T11, EPHA5 (Homo sapiens, UniProt P54756); assay: KINOMEscan 1 μM, EPHA5; assay type: binding; conditions: 1000 nM; Entrez EPHA5; read-out: Percent Control
T11 construct: purchased Eurofins DiscoverX KINOMEscan
From the text: as §1

IKK-epsilon = target: T12, IKK-epsilon (Homo sapiens, UniProt Q14164); assay: KINOMEscan 1 μM, IKK-epsilon; assay type: binding; conditions: 1000 nM; Entrez IKBKE; read-out: Percent Control
T12 construct: purchased Eurofins DiscoverX KINOMEscan
From the text: as §1

MARK3 = target: T13, MARK3 (Homo sapiens, UniProt P27448); assay: KINOMEscan 1 μM, MARK3; assay type: binding; conditions: 1000 nM; Entrez MARK3; read-out: Percent Control
T13 construct: purchased Eurofins DiscoverX KINOMEscan
From the text: as §1

PIK3CA(H1047Y) = target: T14, PIK3CA(H1047Y) (Homo sapiens, UniProt P42336, H1047Y); assay: KINOMEscan at 1 μM, PIK3CA(H1047Y); assay type: binding; conditions: 1000 nM, read-out: Percent Control
T14 construct: purchased Eurofins DiscoverX KINOMEscan
T14 sequence (P42336 whole entry H1047Y): as the sequence (P42336 whole entry H1047L) above, with L1047Y counted along it
From the text: (§2) Supplement cells-12-00287-s001.zip/File S2. KinomeScan data for the CAMKK2 probe and negative control.xlsx, sheet "SGC-CAMKK2-1N" | column: Percent Control

TAK1 = target: T15, TAK1 (Homo sapiens, UniProt O43318); assay: KINOMEscan at 1 μM, TAK1; assay type: binding; conditions: 1000 nM, read-out: Percent Control
T15 construct: purchased Eurofins DiscoverX KINOMEscan
From the text: as §2

NDR2 = target: T16, NDR2 (Homo sapiens, UniProt Q9Y2H1); assay: KINOMEscan at 1 μM, NDR2; assay type: binding; conditions: 1000 nM, read-out: Percent Control
T16 construct: purchased Eurofins DiscoverX KINOMEscan
From the text: as §2

CAMK2D = target: T17, CAMK2D (Homo sapiens, UniProt Q13557); assay: KINOMEscan at 1 μM, CAMK2D; assay type: binding; conditions: 1000 nM, read-out: Percent Control
T17 construct: purchased Eurofins DiscoverX KINOMEscan
From the text: as §2

DLK = target: T18, DLK (Homo sapiens, UniProt Q12852); assay: KINOMEscan at 1 μM, DLK; assay type: binding; conditions: 1000 nM, read-out: Percent Control
T18 construct: purchased Eurofins DiscoverX KINOMEscan
From the text: as §2

MAP4K2 = target: T19, MAP4K2 (Homo sapiens, UniProt Q12851); assay: KINOMEscan at 1 μM, MAP4K2; assay type: binding; conditions: 1000 nM, read-out: Percent Control
T19 construct: purchased Eurofins DiscoverX KINOMEscan
From the text: as §2

[1] = target: T20, ABL1(F317L)-phosphorylated (Homo sapiens, UniProt P00519, F317L); assay: KINOMEscan at 1 μM, ABL1(F317L)-phosphorylated; assay type: binding; conditions: 1000 nM, read-out: Percent Control
T20 construct: purchased Eurofins DiscoverX KINOMEscan
From the text: as §2

MKK7 = target: T21, MKK7 (Homo sapiens, UniProt O14733); assay: KINOMEscan at 1 μM, MKK7; assay type: binding; conditions: 1000 nM, read-out: Percent Control
T21 construct: purchased Eurofins DiscoverX KINOMEscan
From the text: as §2

[2] = target: T22, RPS6KA4(Kin.Dom.2-C-terminal) (Homo sapiens, UniProt O75676); assay: KINOMEscan at 1 μM, RPS6KA4(Kin.Dom.2-C-terminal); assay type: binding; conditions: 1000 nM, read-out: Percent Control
T22 construct: RPS6KA4(Kin.Dom.2-C-terminal); purchased Eurofins DiscoverX KINOMEscan
From the text: as §2

ERK8 = target: T23, ERK8 (Homo sapiens, UniProt Q8TD08); assay: KINOMEscan at 1 μM, ERK8; assay type: binding; conditions: 1000 nM, read-out: Percent Control
T23 construct: purchased Eurofins DiscoverX KINOMEscan
T23 sequence (Q8TD08 whole entry): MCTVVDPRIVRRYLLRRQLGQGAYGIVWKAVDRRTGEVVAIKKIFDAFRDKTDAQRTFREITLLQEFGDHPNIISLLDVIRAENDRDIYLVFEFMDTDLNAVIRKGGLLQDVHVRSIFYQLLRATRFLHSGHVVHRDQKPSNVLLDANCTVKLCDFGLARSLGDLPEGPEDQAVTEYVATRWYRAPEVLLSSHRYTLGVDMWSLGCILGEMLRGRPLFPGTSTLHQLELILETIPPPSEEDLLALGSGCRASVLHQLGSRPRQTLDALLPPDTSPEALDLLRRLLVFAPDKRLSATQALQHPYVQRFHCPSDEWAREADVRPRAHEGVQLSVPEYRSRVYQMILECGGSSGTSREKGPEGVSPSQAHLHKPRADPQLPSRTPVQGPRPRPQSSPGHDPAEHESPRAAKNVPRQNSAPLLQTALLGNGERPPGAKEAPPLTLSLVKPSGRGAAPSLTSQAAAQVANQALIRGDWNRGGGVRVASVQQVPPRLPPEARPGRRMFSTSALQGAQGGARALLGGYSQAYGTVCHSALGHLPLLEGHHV
From the text: as §2

CSF1R-autoinhibited = target: T24, CSF1R-autoinhibited (Homo sapiens, UniProt P07333); assay: KINOMEscan at 1 μM, CSF1R-autoinhibited; assay type: binding; conditions: 1000 nM, read-out: Percent Control
T24 construct: purchased Eurofins DiscoverX KINOMEscan
T24 sequence (P07333 20-972): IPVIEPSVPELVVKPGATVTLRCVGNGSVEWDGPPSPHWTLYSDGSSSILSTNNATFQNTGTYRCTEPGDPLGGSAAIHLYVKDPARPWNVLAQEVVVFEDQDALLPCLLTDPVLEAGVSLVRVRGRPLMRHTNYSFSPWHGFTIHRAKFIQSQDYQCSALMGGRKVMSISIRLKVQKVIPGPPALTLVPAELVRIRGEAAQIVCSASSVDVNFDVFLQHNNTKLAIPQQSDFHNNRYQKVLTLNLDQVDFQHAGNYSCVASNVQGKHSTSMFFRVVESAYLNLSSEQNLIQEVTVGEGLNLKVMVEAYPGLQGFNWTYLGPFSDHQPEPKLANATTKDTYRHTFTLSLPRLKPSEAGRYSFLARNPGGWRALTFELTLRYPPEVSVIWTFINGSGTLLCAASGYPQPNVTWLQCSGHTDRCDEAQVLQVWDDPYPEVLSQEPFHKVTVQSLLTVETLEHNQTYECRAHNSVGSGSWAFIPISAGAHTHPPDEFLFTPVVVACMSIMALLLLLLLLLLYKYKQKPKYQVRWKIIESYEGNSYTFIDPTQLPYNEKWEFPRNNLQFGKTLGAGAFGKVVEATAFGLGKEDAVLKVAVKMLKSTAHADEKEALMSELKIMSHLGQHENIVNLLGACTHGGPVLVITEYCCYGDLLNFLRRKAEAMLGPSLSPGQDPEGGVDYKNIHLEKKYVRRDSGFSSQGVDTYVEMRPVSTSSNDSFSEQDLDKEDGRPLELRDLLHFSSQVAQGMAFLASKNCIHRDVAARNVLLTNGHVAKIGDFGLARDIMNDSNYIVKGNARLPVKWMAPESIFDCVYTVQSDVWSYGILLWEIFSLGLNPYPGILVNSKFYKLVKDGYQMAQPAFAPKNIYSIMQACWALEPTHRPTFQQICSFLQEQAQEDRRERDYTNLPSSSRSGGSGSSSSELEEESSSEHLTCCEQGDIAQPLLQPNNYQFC
From the text: as §2

MAP4K5 = target: T25, MAP4K5 (Homo sapiens, UniProt Q9Y4K4); assay: KINOMEscan at 1 μM, MAP4K5; assay type: binding; conditions: 1000 nM, read-out: Percent Control
T25 construct: purchased Eurofins DiscoverX KINOMEscan
From the text: as §2

PRKD2 = target: T26, PRKD2 (Homo sapiens, UniProt Q9BZL6); assay: KINOMEscan at 1 μM, PRKD2; assay type: binding; conditions: 1000 nM, read-out: Percent Control
T26 construct: purchased Eurofins DiscoverX KINOMEscan
From the text: as §2

ERK3 = target: T27, ERK3 (Homo sapiens, UniProt Q16659); assay: KINOMEscan at 1 μM, ERK3; assay type: binding; conditions: 1000 nM, read-out: Percent Control
T27 construct: purchased Eurofins DiscoverX KINOMEscan
From the text: as §2

SIK2 = target: T28, SIK2 (Homo sapiens, UniProt Q9H0K1); assay: KINOMEscan at 1 μM, SIK2; assay type: binding; conditions: 1000 nM, read-out: Percent Control
T28 construct: purchased Eurofins DiscoverX KINOMEscan
From the text: as §2

AXL = target: T29, AXL (Homo sapiens, UniProt P30530); assay: KINOMEscan at 1 μM, AXL; assay type: binding; conditions: 1000 nM, read-out: Percent Control
T29 construct: purchased Eurofins DiscoverX KINOMEscan
From the text: as §2

NIK = target: T30, NIK (Homo sapiens, UniProt Q99558); assay: KINOMEscan at 1 μM, NIK; assay type: binding; conditions: 1000 nM, read-out: Percent Control
T30 construct: purchased Eurofins DiscoverX KINOMEscan
From the text: as §2

DCAMKL1 = target: T31, DCAMKL1 (Homo sapiens, UniProt O15075); assay: KINOMEscan at 1 μM, DCAMKL1; assay type: binding; conditions: 1000 nM, read-out: Percent Control
T31 construct: purchased Eurofins DiscoverX KINOMEscan
From the text: as §2

DDR2 = target: T32, DDR2 (Homo sapiens, UniProt Q16832); assay: KINOMEscan at 1 μM, DDR2; assay type: binding; conditions: 1000 nM, read-out: Percent Control
T32 construct: purchased Eurofins DiscoverX KINOMEscan
T32 sequence (Q16832 22-855): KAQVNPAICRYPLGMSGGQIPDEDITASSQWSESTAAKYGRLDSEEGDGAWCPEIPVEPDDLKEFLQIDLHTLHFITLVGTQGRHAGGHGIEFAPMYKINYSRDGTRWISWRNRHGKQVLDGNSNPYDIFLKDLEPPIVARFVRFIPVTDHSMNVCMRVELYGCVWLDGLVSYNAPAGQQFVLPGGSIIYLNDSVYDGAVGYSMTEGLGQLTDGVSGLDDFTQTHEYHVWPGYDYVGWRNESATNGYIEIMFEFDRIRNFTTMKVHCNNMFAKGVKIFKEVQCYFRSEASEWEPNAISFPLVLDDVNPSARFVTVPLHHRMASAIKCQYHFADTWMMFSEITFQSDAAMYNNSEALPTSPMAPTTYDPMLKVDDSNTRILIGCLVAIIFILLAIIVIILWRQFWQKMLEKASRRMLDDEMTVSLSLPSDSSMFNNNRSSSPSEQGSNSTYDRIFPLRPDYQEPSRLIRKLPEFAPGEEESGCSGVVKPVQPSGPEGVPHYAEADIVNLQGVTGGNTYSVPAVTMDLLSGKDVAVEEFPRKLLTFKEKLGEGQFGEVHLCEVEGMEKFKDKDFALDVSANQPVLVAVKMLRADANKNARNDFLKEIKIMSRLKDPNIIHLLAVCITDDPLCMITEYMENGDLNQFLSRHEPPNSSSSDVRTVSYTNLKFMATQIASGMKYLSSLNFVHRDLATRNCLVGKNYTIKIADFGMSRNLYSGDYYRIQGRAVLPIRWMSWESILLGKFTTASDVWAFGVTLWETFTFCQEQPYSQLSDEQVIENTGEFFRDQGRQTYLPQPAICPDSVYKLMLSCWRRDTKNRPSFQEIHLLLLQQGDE
From the text: as §2

EPHA8 = target: T33, EPHA8 (Homo sapiens, UniProt P29322); assay: KINOMEscan binding assay at 1 μM, EPHA8; conditions: Compound Concentration 1000 nM; read-out: Percent Control
T33 construct: purchased Eurofins DiscoverX KINOMEscan
T33 sequence (P29322 28-1005): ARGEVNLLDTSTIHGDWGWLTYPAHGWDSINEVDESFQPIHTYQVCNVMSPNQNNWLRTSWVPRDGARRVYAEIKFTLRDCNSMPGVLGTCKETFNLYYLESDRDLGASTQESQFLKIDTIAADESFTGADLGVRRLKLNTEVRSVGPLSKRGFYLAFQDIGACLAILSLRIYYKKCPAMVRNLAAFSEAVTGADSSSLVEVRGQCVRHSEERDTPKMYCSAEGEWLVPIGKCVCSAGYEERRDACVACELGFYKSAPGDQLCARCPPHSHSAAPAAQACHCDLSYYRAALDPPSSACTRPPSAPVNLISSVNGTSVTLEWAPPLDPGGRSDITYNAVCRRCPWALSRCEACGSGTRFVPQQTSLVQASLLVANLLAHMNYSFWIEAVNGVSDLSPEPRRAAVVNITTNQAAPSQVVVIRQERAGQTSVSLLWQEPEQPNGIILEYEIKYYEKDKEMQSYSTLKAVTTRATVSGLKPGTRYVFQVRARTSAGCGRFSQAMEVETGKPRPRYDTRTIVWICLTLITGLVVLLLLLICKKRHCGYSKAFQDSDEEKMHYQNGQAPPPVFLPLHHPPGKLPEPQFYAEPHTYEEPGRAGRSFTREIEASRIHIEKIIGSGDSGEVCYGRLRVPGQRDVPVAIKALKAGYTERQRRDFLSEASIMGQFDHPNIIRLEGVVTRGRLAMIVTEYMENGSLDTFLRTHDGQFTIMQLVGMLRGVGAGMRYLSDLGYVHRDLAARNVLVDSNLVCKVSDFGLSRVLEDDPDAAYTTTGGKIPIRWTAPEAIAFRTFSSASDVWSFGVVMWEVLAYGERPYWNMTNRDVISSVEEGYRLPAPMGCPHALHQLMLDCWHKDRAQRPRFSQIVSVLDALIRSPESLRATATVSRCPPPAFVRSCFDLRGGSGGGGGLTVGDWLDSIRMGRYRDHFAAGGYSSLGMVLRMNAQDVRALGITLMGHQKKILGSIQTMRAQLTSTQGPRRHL
From the text: as §2

YANK2 = target: T34, YANK2 (Homo sapiens, UniProt Q9NY57); assay: KINOMEscan binding assay at 1 μM, YANK2; conditions: Compound Concentration 1000 nM; read-out: Percent Control
T34 construct: purchased Eurofins DiscoverX KINOMEscan
From the text: as §2

Cc1cccc(-c2cnc3occ(-c4ccc(C(=O)O)c(C5CCCC5)c4)c3c2)c1 [SGC-CAMKK2-1 (YL-36)]
remaining binding at 1 µM (CAMK1G): 54% | remaining binding at 1 µM (PIK3CA(H1047L)): 78% | remaining binding at 1 µM (PHKG1): 80% | remaining binding at 1 µM (SGK): 86% | remaining binding at 1 µM (EGFR(S752-I759del)): 87% | remaining binding at 1 µM (PIK3C2B): 87% | remaining binding at 1 µM (STK36): 89% | remaining binding at 1 µM (EPHB3): 96% | remaining binding at 1 µM (BUB1): 100% | remaining binding at 1 µM (CSNK1G1): 100% | remaining binding at 1 µM (EPHA5): 100% | remaining binding at 1 µM (IKK-epsilon): 100% | remaining binding at 1 µM (MARK3): 100%

O=C(O)c1ccc(-c2coc3ncc(-c4ccccc4)cc23)cc1Cl [SGC-CAMKK2-1N (UNC-YL-83)]
remaining binding at 1 µM (PIK3CA(H1047Y)): 59% | remaining binding at 1 µM (TAK1): 62% | remaining binding at 1 µM (NDR2): 76% | remaining binding at 1 µM (CAMK2D): 77% | remaining binding at 1 µM (DLK): 77% | remaining binding at 1 µM (MAP4K2): 77% | remaining binding at 1 µM [1]: 79% | remaining binding at 1 µM (MKK7): 82% | remaining binding at 1 µM [2]: 82% | remaining binding at 1 µM (ERK8): 86% | remaining binding at 1 µM (CSF1R-autoinhibited): 89% | remaining binding at 1 µM (MAP4K5): 89% | remaining binding at 1 µM (PRKD2): 91% | remaining binding at 1 µM (ERK3): 92% | remaining binding at 1 µM (SIK2): 93% | remaining binding at 1 µM (AXL): 94% | remaining binding at 1 µM (NIK): 94% | remaining binding at 1 µM (DCAMKL1): 100% | remaining binding at 1 µM (DDR2): 100% | remaining binding at 1 µM (EPHA8): 100% | remaining binding at 1 µM (YANK2): 100%
